The text below walks through data of patent US7838005B2, “Treatment of insulin resistance by administering an acid-sensing ion channel 3 inhibitor” (priority 2007, dated 2010).

One test concerns rodents. The conditions noted are these: salicylate 120 mg/kg/day, continual treatment; cited from earlier work.
The test system of test [1] is aging ASIC3+/+ mice. The test can be described thus: Insulin tolerance test (ITT) with ASIC3 blockers in aging mice. The following applies: salicylic acid 14 mg/kg or APETx2 0.23 mg/kg injected intraperitoneally with insulin 0.5 mU/g. The test is classed as in vivo. The protocol: (§1) ASIC3−/− mice were generated as described in Chen et al., Proc. Natl. Acad. Sci. USA 99, 8992-8997, 2002. Congenic 129 mice were derived from breeding ASIC3 chimera with female 129S2/SvPasCrl wild type mice. All mice were raised in a 12:12-h light-dark cycle at 25° C. and 40% to 70% humidity. All experiments involved use of female mice in different age groups. The animals were bred in a specific pathogen-free facility and cared for in accordance with the Guide for the Use of Laboratory Animals (National Academy Press, Washington D.C.). The experimental protocol was approved by the animal use committee of Academia Sinica.
(§2) Mice of 9, 16, or 25 weeks old were tested for glucose tolerance (GTT) and those of 18 or 27 weeks old for insulin tolerance (ITT). For GTT, the mice fasted overnight then were injected with glucose intraperitoneally at 1.5 mg/g body weight. For ITT, the mice were given free access to food and injected with insulin intraperitoneally at 0.5 mU/g body weight. The glucose levels were measured in blood withdrawn from the tail vein. To study effects of ASIC3 blockers, salicylic acid (14 mg/kg) or APETx2 (0.23 mg/kg) were injected with glucose or insulin intraperitoneally.
(§3) To test whether ASIC3 selective blockers could reverse age-dependent glucose intolerance and insulin resistance, we tested the effects of salicylic acid and APETx2 in the aging mouse groups. […]

The target in a further test is T1, IKKβ (Mus musculus, UniProt O88351).
T1 construct: host or cells: rodents (in vivo)
T1 sequence (O88351 1-757): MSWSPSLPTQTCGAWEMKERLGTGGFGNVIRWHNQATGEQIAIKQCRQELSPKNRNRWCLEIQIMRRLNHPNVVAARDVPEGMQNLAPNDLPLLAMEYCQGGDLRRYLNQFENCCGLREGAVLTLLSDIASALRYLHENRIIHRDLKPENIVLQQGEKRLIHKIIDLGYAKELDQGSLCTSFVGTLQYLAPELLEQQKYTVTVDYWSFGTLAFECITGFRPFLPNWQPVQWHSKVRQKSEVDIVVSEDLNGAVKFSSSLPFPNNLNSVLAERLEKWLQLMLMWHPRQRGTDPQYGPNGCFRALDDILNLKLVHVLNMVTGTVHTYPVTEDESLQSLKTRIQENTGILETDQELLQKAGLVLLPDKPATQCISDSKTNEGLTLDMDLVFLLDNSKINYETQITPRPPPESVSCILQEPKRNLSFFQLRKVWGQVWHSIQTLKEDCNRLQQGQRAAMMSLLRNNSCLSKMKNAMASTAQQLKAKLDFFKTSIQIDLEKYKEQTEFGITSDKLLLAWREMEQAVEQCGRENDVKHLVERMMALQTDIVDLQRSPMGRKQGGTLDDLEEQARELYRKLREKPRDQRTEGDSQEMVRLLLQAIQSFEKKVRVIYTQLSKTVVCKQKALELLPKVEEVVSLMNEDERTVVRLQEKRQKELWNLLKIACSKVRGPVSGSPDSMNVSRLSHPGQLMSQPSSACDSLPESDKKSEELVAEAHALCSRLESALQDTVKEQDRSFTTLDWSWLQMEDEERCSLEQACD
The following applies: salicylate 120 mg/kg/day, continual treatment, rodents; cited from earlier work.

For another test, the target named is T2, WAT-expressed ASIC3 (Mus musculus, UniProt Q6X1Y6).
T2 construct: Whole cell recordings were made of primary culture adipose cells; endogenous in cells; host or cells: primary stromal-vascular fraction (SVF) adipose cells from periovarian white adipose tissue of female mice
T2 sequence (Q6X1Y6 1-530): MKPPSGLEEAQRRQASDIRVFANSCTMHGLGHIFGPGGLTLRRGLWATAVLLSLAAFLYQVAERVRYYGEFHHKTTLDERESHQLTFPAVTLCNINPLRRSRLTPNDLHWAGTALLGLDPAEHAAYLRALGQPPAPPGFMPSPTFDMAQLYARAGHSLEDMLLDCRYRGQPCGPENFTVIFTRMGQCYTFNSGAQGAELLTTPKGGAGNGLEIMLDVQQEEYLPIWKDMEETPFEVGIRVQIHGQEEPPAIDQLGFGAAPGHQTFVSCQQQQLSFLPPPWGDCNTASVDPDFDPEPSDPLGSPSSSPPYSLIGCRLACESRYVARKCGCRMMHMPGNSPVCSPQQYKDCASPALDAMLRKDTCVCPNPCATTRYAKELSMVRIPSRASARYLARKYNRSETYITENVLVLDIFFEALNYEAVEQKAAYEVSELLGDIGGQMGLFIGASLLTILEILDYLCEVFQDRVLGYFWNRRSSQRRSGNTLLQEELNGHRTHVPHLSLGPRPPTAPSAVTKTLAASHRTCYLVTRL
The test can be described thus: Whole-cell patch recording of acid-evoked currents in cultured SVF adipose cells. The test is classed as cell-based. The following applies: pH 5.0 evoked currents, SVF adipose cells from mice 8 to 10 weeks old, voltage-clamp. How it is done:
Fat pads of periovarian white adipose tissue (WAT) were isolated from female mice. One gram of the isolated fat pad was digested with 2 mg/ml of collagenase type VIII (Sigma) in 4 ml Dulbecco's modified Eagle's medium (DMEM) at 37° C. for 1 hour. Then, the digested tissues were centrifuged at 200×g for 5 minutes at 4° C. The supernatant, which contains mature adipocytes, was collected for RNA isolation. The cell pellet, the stromal-vascular fraction (SVF), consisted of mesenchynal cells (adipoblasts) and immature adipocytes (adipocyte precursors and postadipocytes) (Van, The adipocyte precusor cell. In: New perspectives in adipose tissue:structure, function, and development. Butterworths, Borough Green, England, chapt. 15, 353-382, 1985). The SVFs were collected for RNA isolation or re-suspended for cell culture in DMEM containing 10% fetal calf serum and antibiotics. SVF cells were plated at a concentration of 10^5 cells per glass cover slide (12 mm in diameter) and maintained at 37° C. in 5% humidified carbon dioxide. The cultured cells then underwent whole-cell patch recording in 5 days. […]
To determine whether WAT-expressed ASIC3 is functional, we applied whole-cell patch recording to examine the acid-evoked currents in cultured SVF cells isolated from mice 8 to 10 weeks old. […]

Test [2] concerns aging ASIC3+/+ mice. As to the kind of experiment: Glucose tolerance test (GTT) with ASIC3 blockers in aging mice. Format: in vivo. The conditions noted are these: salicylic acid 14 mg/kg or APETx2 0.23 mg/kg injected intraperitoneally with glucose 1.5 mg/g after overnight fast. The protocol: as §1, §2, §3

As for `O=C(O)c1ccccc1O` [salicylic acid], in the test on rodents, the “effect on obesity- and diet-induced insulin resistance” value was “reversed obesity- and diet-induced insulin resistance”. Further, the “effect on insulin tolerance test / insulin sensitivity (ITT)” value with aging ASIC3+/+ mice [1] is “not affect insulin tolerance test”. The “effect on IKKβ activity” value on IKKβ was “disrupted IKKβ activity”. Besides, the “sensitivity of acid-induced inward currents to blocker” value at WAT-expressed ASIC3 was “sensitive”. In the test on aging ASIC3+/+ mice [2], the “effect on age-dependent glucose tolerance (GTT)” value was “reverse in part the age-dependent effect of glucose tolerance”.
Take APETx2: in the test with aging ASIC3+/+ mice [1], the “effect on insulin tolerance test / insulin sensitivity (ITT)” value is “significantly enhance the insulin sensitivity”. The “sensitivity of acid-induced inward currents to blocker” value on WAT-expressed ASIC3 is “sensitive”. In addition, the “effect on age-dependent glucose tolerance (GTT)” value in the test on aging ASIC3+/+ mice [2] is “effectively reverse the age-dependent effect of glucose tolerance”.
